For assay [1], the system named is dorsal ITC neurons. The experiment in a line: STDP-induced LTD in dorsal ITC in amygdala slices after weak fear conditioning. It counts as cell-based, mice. Particulars: for induction of LTD after weak fear conditioning: wild-type mice, slices after weak fear conditioning, drug applied to slices. How it is done:
(§1) Fear conditioning trainings were conducted in context A within sound-attenuating conditions (Panlab, Spain). Tone CS (conditioned stimulus) was delivered with a speaker while electric foot shock US (unconditioned stimulus) was applied through a floor grid attached to a shock generator (Panlab). The chambers were also equipped with infrared webcams connected to a personal computer to store animal behavior. Mice were placed in the context A for 2 minutes of acclimation and were then presented with auditory tone (CS: 3 kHz, 80 dB for 30 sec) that were co-terminated with electric foot shocks (US: 0.4 or 0.8 mA for 0.5 sec). Total 8 CS-US pairs were presented in pseudorandom intertrial intervals (varied from 60 to 120 sec). 24 hours after fear conditioning, mice were placed in context B to assess the recall of fear memory by being re-exposed to CS, but without US for 2 minutes.
(§2) To compare mPSCs without or after STDP, KCl-based and K-gluconate-based internal solutions were used for recording mIPSCs and mEPSCs, respectively. K-gluconate based solution was also used to record EPSCs and IPSCs evoked by interleaved stimulation. Series resistance (10-30 MΩ) was monitored throughout all experiments. mEPSCs were recorded at −70 mV holding potential in the presence of 1 μM tetrodotoxin (TTX) and 100 μM picrotoxin (Tocris, UK) while mIPSCs were measured at −70 mV in the presence of 1 μM TTX, 25 μM NBQX, and 50 μM 2-amino-5-phosphonovaleric acid (APV, Tocris). Miniature PSCs were analyzed with MiniAnalysis (Synaptosoft, Fort Lee, N.J.) or Clampfit 10.1 software (Molecular Devices). For PSC recordings with interleaved stimulation, the holding potential was briefly (˜40 ms) changed from −70 mV to +10 mV to reach the reversal potential of EPSC for isolation of putative IPSCs. For STDP experiments, stimulus intensity was adjusted to elicit EPSPs displaying 25%-30% of the maximum amplitudes. […]

In assay [2] the test system is dorsal ITC neurons. Description: Disynaptic IPSP input-output curves in dorsal ITC of CORT-treated mice. The following applies: vehicle-treated significantly increased. The assay is classed as cell-based. The procedure: To induce PTSD-like memory impairment, corticosterone (CORT, 5 mg/kg) or vehicle (saline, 0.9% NaCl) was intraperitoneally (i.p.) injected immediately after fear conditioning as previously described. The cue-conditioning group underwent weak fear conditioning with the previously-described CS-US pairing paradigm in context A and was tested for fear recall toward the cue in context B at the next day.
To obtain mechanistic insights into the LTD impairment, we constructed the input-output curves of evoked disynaptic IPSPs. […] Thus, the LTD deficit in CORT-treated mice appears to result from the impaired augmentation of inhibitory inputs to the dorsal ITC neurons.

Assay [3] relates to mice that underwent weak fear conditioning. The experiment in a line: Corticosterone-induced PTSD-like memory impairment after weak fear conditioning (freezing). It counts as in vivo. The following applies: CORT 5 mg/kg i.p. The procedure: as §1, with “minutes. […]” for “minutes.”
To assess contextual fear memory from cue conditioned animals, the mice were placed again in context A 2 hours after termination of the first recall test and then duration of freezing was measured for 2 minutes without presentation of the auditory cue. The mice were placed in context B 2 hours after termination of the first recall test and the freezing time during presentation of the auditory cue was measured for 2 minutes.

In assay [4] the test system is dorsal ITC neurons.
Assay [5] deals with dorsal ITC neurons. The experiment in a line: STDP-induced DA-dependent LTD (DA-LTD) in dorsal ITC neurons, amygdala slice whole-cell recordings. It counts as cell-based, mice. Particulars: for effect on DA-LTD: STDP protocol in presence of DA, antagonists in optimal concentrations selective for each receptor, naive mice; for induction of LTD at the dorsal ITC by receptor agonist: STDP protocol, agonist in place of DA.

The subject of the next assay is ITC neurons. The experiment in a line: Paired recording of unitary IPSCs (uIPSCs) between synaptically coupled ITC neurons.
In a further assay the target is T1, D4R at the dorsal ITC (Mus musculus, UniProt P51436).
T1 construct: endogenous in cells; host or cells: neurons of the mouse brain in vivo (dorsal ITC of the amygdala); mice from Jackson Laboratory
T1 sequence (P51436 1-387): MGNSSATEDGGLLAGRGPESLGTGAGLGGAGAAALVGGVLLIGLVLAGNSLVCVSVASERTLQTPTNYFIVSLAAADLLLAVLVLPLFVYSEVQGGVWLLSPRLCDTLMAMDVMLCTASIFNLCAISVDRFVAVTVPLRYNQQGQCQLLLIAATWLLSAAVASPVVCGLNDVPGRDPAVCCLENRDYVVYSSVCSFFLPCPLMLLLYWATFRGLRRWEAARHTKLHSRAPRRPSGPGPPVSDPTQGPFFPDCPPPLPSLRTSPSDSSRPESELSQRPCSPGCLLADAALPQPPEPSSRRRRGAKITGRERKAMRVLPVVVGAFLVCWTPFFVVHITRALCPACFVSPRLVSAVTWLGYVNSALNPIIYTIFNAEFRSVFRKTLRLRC
Description: Weak fear conditioning after bilateral drug infusion into the dorsal ITC (freezing). It counts as in vivo, mice. The following applies: 500 nM, 0.5 μl bilaterally into dorsal ITC 20 minutes before fear conditioning; vs vehicle. How it is done:
Guide cannulae were implanted bilaterally (26 gauge, Plastics One, Roanoke, Va.) aimed into the dorsal ITC areas in the coordinates, AP−1.4 mm, ML±3.2 mm, DV−4.2 mm from the bregma, and were fixed in the skull with dental cement. The cannulae remained capped with internal dummy cannulae (33 gauges, Plastics One) after surgery. Animals were individually housed and allowed to recover at least for 1 week after surgery. The mice bilaterally received 0.5 μl of either L-745870 or vehicle through the injection cannula (33 gauge, Plastics One) connected to a 10-μl Hamilton syringe for 5 minutes at a rate of 0.1 μl/min using microinfusion pump (Harvard Apparatus, Holliston, Mass.) 20 minutes before fear conditioning. L-745870 was dissolved to 500 nM in 0.9% saline just before the infusion. Mice were kept with injector cannulae for additional 5 minutes after the end of infusion and then were subjected to fear conditioning. […] The subject mice were transcardially perfused right after the last behavioral tests and analyzed for the injection loci. […]
If DA-LTD at the dorsal ITC is a synaptic mechanism that regulates neural circuits conveying fear memory, manipulation of D4R activity or synaptic plasticity at the dorsal ITC should affect fear memory. […] We injected either vehicle or L-745870 bilaterally into the dorsal ITC areas and then assessed acquisition and expression of fear memory (FIG. 5A).

Assay [6] relates to dorsal ITC neurons. Description: STDP in dorsal ITC neurons of naive slices with or without GABAA receptor blockade. The assay is classed as cell-based, mice. The following applies: +4- and +6-ms interval delays; not in absence of picrotoxin. How it is done:
as §2, with “amplitudes. After obtaining stable baseline recording, 80 presynaptic stimuli were delivered at 2 Hz via metal stimulating electrode placed in LA while paired with action potentials induced by injection of depolarizing current to postsynaptic neurons. Quantal contents were estimated by obtaining the inverse square of the coefficient of variation (1/CV^2). […].” for “amplitudes.”

Regarding `C[C@]12C[C@H](O)[C@H]3[C@@H](CCC4=CC(=O)CC[C@@]43C)[C@@H]1CC[C@@H]2C(=O)CO` [CORT, corticosterone], in the assay on dorsal ITC neurons [1] (CORT 5 mg/kg i.p. after conditioning, regardless of fear conditioning), the “induction of LTD in dorsal ITC of CORT-treated mice” value is on record as “LTD could not be triggered”. The “disynaptic IPSPs after weak fear conditioning” value in the assay on dorsal ITC neurons [2] was “not altered”. In assay [3], the “freezing to the context after cue conditioning only” value is recorded as “increased freezing levels”. Besides, in assay [3] (vs vehicle-injected, cue or context pairing), the “freezing to the conditioned cue 24 hr after weak fear conditioning” value is recorded as “higher freezing levels”.

`NCCc1ccc(O)c(O)c1` [DA, Dopamine]: in the assay with dorsal ITC neurons [4] (DA 30 mM, before and after application), the “changes in resting membrane potentials (RMPs) and excitability” value is recorded as “negligible changes”. The “synaptic transmission on bath application alone” value with dorsal ITC neurons [4] (bath application of DA alone, no STDP) is listed as “did not alter synaptic transmission”. Also, the “induction of LTD by the STDP protocol in the presence of DA” value in the assay on dorsal ITC neurons [5] (DA 30 mM) is listed as “LTD was readily induced”.

For the compound `Nc1nc2c(ncn2[C@@H]2O[C@H](COP(=O)(O)OP(O)(O)=S)[C@@H](O)[C@H]2O)c(=O)[nH]1` [GDPβS], the “LTD-induced increment of uIPSC amplitude, infused into postsynaptic ITC neurons” value with ITC neurons (GDPβS 0.5 mM in internal solution, postsynaptic neuron) is “not”. For the same compound, the “LTD-induced increment of uIPSC amplitude, infused into presynaptic ITC neurons” value with ITC neurons (GDPβS 0.5 mM in internal solution, presynaptic neuron) is reported as “blocked”.

With `COc1ccccc1N1CCN(CCCCNC(=O)c2ccc(-c3ccc(C(C)=O)cc3)cc2)CC1` [GR-103691], the “effect on DA-LTD” value in the assay with dorsal ITC neurons [5] is “did not affect DA-LTD”.

Regarding `OC1(c2ccc(Cl)cc2)CCN(Cc2c[nH]c3ccccc23)CC1` [L-741626], the “effect on DA-LTD” value with dorsal ITC neurons [5] is reported as “did not affect DA-LTD”.

Consider `Clc1ccc(N2CCN(Cc3c[nH]c4ncccc34)CC2)cc1` [L-745870], for which the “induction of LTD after weak fear conditioning” value with dorsal ITC neurons [1] was “interfered with the induction of LTD”. Besides, at D4R at the dorsal ITC, the “freezing at 24 hr after weak fear conditioning” value is on record as “significantly higher levels of freezing” and the “freezing levels during acquisition” value was “comparable freezing levels”. The “effect on DA-LTD” value in the assay on dorsal ITC neurons [5] was “abolished DA-LTD”.

As to `CCCN1CCO[C@@H]2c3cc(O)ccc3OC[C@H]21` [PD-128907], the “induction of LTD at the dorsal ITC by receptor agonist” value (“induction of LTD at the dorsal ITC” for short) in the assay on dorsal ITC neurons [5] is listed as “did not”.

`Cc1cccc(C(=O)NCN2CCN(c3ccccc3C#N)CC2)c1` [PD-168077, N-([4-(2-cyanophenyl)piperazine-1-yl]methyl)-3-methylbenzamide]: the “amplitude of uIPSCs when LTD was induced” value in the assay on ITC neurons (current injection to postsynaptic ITC neurons while stimulating LA in presence of PD-168077) is on record as “markedly increased”. Moreover, the “induction of LTD at the dorsal ITC” value in the assay on dorsal ITC neurons [5] is on record as “allowed for the induction of LTD”.

On to `CC#C[C@]1(O)CC[C@H]2[C@@H]3CCC4=CC(=O)CCC4=C3[C@@H](c3ccc(N(C)C)cc3)C[C@@]21C` [RU38486], for which, in the assay with dorsal ITC neurons [1], the “induction of LTD after weak fear conditioning” value was “blocked”. Also, the “effect on DA-LTD” value in the assay on dorsal ITC neurons [5] is “blocked”.

Regarding `Oc1cc2c(cc1O)C(c1ccccc1)CNCC2` (stereo not shown) [SKF-38393], the “induction of LTD at the dorsal ITC” value in the assay on dorsal ITC neurons [5] is on record as “did not”.

picrotoxin: the “synaptic plasticity by STDP in presence of GABAA receptor antagonist” value with dorsal ITC neurons [6] is “LTP”.

These data come from US10668061B2, “Mouse with D4R iRNA in the intercalating cell mass of the amygdala” (POSTECH ACADEMY-INDUSTRY FOUNDATION, priority 2016, dated 2020).
